Test results as given in US8980077B2, “Plating bath and method” (Rohm and Haas Electronic Materials LLC, priority 2012, dated 2015).
In brackets after ≈: the same amount, converted by molar mass.

Columns and labels:
[1] = Stability Test 1: DI water solution plus aqueous MSA (70%), 50° C. oven, visual inspection for precipitate; type: physicochemical; details: 5.96 mg/mL in DI water plus aqueous MSA (70%)
Protocol: (§1) The stability of Compound 6 and Comparative 1 were determined using 2 different tests. In Test 1, solutions of each of Compound 6 and Comparative 1 dissolved in DI water (at a concentration of 5.96 mg/mL) were placed in separate vials. To each vial was added aqueous MSA (70%), the vials were then capped, placed in a 50° C. oven, and periodically visually inspected for the formation of precipitate. […] In Test 2, solutions of each of Compound 6 and Comparative 1 dissolved in D2O (at a concentration of 5.96 mg/mL) were placed in separate NMR tubes. A ^1H NMR (400 MHz) spectrum was obtained for each solution. Next, a solution of MSA (70%) dissolved in D2O was prepared and added to each NMR tube. A second ^1H NMR spectrum was immediately taken of each sample. Next, the NMR tubes were placed in a 50° C. oven, and periodically removed, analyzed by ^1H NMR, and returned to the oven.

[2] = Stability Test 2: D2O solution plus MSA (70%), 50° C. oven, 1H NMR; type: physicochemical
Protocol: as §1

[3] = Extended storage or long-term use in tin-silver electroplating bath (prior-art complexers); type: physicochemical
From the text: U.S. Pat. No. 6,998,036 discloses an acidic tin-silver alloy electroplating bath containing a certain sulfide or thiol-substituted ether compound.
U.S. Pat. No. 7,628,903 discloses conventional silver and silver-alloy electroplating baths containing certain sulfide compounds. This patent purports that these electroplating baths have good stability.

[4] = Solubility in 17% methane sulfonic acid (MSA)/DI water solution; details: aqueous with cosolvent or surfactant or cyclodextrin, thermodynamic from solid
Protocol: (§2) If a compound dissolved, then an additional 25 mg (in increments) of that compound was added until either no more would dissolve or 250 mg were dissolved in the 5 mL.

[5] = Stability in 17% MSA/water at 50° C., visual inspection for precipitation; details: for Stability (at 50° C.): 5 mg in 1 mL 17% MSA/water, time without precipitation; for Stability compared with Comparatives 1 and 2: 17% MSA/water
Protocol: The stability of various compounds was determined as follows: 5 mg of a compound was dissolved into 1 mL of 17% MSA/water solution and placed in a glass vial. Each vial was capped and placed in a dry heating bath at 50° C. for up to three weeks. Each sample was periodically removed from the bath and visually inspected for evidence of precipitation.

physchem = details: aqueous with cosolvent or surfactant or cyclodextrin, thermodynamic from solid
Protocol: as §2

| SMILES | solubility [4] | Stability (at 50° C.) [5] | further results |
| --- | --- | --- | --- |
| OCCSCCSCCO [Comparative 1, 2,2′-[1,2-ethanediylbis(thio)]bis-ethanol, reference compound] | 30 to 35 mg/mL (≈ 165 to 192 mM) | <24 h | Formation of precipitate (Test 1, visual inspection) ([1]; after 60 hours): a copious amount of a white, flocculent precipitate; Change of 1H NMR spectrum (Test 2) ([2]; 5.96 mg/mL in D2O, immediately upon addition of the MSA solution): loss of the ^1H NMR spectrum; Behaviour upon extended storage or long term use in the electroplating bath [3]: polymerize |
| OCCSCSCCO [Comparative 2, 2,2′-(Methylenebis(sulfanediyl))diethanol, reference compound] | > 50 mg/mL | <1 week |  |
| NC(=O)CCSCCSCCC(N)=O [Compound 1, 3,3′-(Ethane-1,2-diylbis(sulfanediyl))dipropanamide] | < 5 mg/mL |  |  |
| O=C(O)CCSCCSCCC(=O)O [Compound 2, 3,3′-(Ethane-1,2-diylbis(sulfanediyl))dipropanoic acid] | < 5 mg/mL |  |  |
| O=C(O)CSCCSCC(=O)O [Compound 3, 2,2′-(Ethane-1,2-diylbis(sulfanediyl))diacetic acid] | 30 mg/mL (≈ 143 mM) |  |  |
| O=S(=O)(O)CCSCCSCCS(=O)(=O)O [Compound 4, 2,2′-(Ethane-1,2-diylbis(sulfanediyl))diethanesulfonic acid] | > 60 mg/mL |  |  |
| O=S(=O)(O)CCCSCCSCCCS(=O)(=O)O [Compound 5, 3,3′-(ethane-1,2-diylbis(sulfanediyl))bis(propane-1-sulfonic acid)] | > 60 mg/mL |  |  |
| OCCCSCCSCCCO [Compound 6, 3,3′-[1,2-Ethanediylbis(thio)]bis-1-propanol] |  | >3 weeks | Formation of precipitate (Test 1, visual inspection) ([1]; after 120 hours): no precipitate formation; Change of 1H NMR spectrum (Test 2) ([2]; 5.96 mg/mL in D2O plus MSA (70%), 50° C., after 7 days): no change in the ^1H NMR spectrum; solubility (physchem): 5000 µg/mL (≈ 23.8 mM); Stability compared with Comparatives 1 and 2 [5]: significantly better |
| OCCCSCSCCCO [Compound 7, 3,3′-(Methylenebis(sulfanediyl))dipropanol] | > 50 mg/mL | >3 weeks | Stability compared with Comparatives 1 and 2 [5]: significantly better |
| O=C(O)CSCSCC(=O)O [Compound 8, 2,2′-(Methylenebis(sulfanediyl))diacetic acid] | > 50 mg/mL | >3 weeks |  |
| O=C(O)CC(SCSC(CC(=O)O)C(=O)O)C(=O)O (stereo not drawn) [Compound 9, 2,2′-(Methylenebis(sulfanediyl))disuccinic acid] | ~10 mg/mL (≈ 32 mM) | >3 weeks |  |
| O=C(O)CSCCCSCC(=O)O [Compound 10, 2,2′-(Propane-1,3-diylbis(sulfanediyl))diacetic acid] | > 50 mg/mL | >3 weeks |  |
| O=S(=O)(O)CCSCCCSCCS(=O)(=O)O [Compound 11, 2,2′-(Propane-1,3-diylbis(sulfanediyl))diethyl sulfonate] | > 50 mg/mL | >3 weeks |  |
| O=S(=O)(O)CCCSCCCSCCCS(=O)(=O)O [Compound 12, 3,3′-(Propane-1,3-diylbis(sulfanediyl))dipropyl sulfonate] | > 50 mg/mL | >3 weeks |  |
